Consider 15 molecules from USRE49850E1, “N-(pyridin-2-yl)-4-(thiazol-5-yl)pyrimidin-2-amine derivatives as therapeutic compounds” (AUCENTRA THERAPEUTICS PTY LTD, priority 2015, dated 2024).

Assay [1] concerns the target CDK1B (Homo sapiens, UniProt P06493). The experiment in a line: Kinase assay CDK1B (radiometric profiling service). Format: biochemical. The conditions noted are these: for Ki: apparent Ki calculated from Km (ATP) and IC50, read-out: CDK inhibition Ki CDK1B; for remaining activity at 10 µM: compound at 10 μM, read-out: % remaining enzymatic activity at 10 μM CDK1B. On the procedure:
(§1) Eurofins Pharma Discovery or Reaction Biology Corporation Kinase Profiler services were used to measure inhibition of CDKs and other kinases by radiometric assay. Inhibition of CDK4/D1, CDK6/D3 and CDK9/T1 were also determined in-house using ADP Glo Kinase assays (Promega Corporation, Madison, USA). Briefly, the kinase reaction for CDK4/D1 and CDK6/D3 was performed with kinase reaction buffer ([…] Tris base pH 7.5, 20 mM MgCl2, 0.4 mM DTT), 0.1 mg/ml BSA and RB-CTF substrate (retinoblastoma protein1 C-terminal fraction). For CDK9/CyclinT1, the kinase reaction was performed with standard assay buffer and Kinase Dilution Buffer and RBER-IRStide substrate. Serial dilutions of 1:3 were prepared for test compounds for 10 concentrations (from 10 μM to 0.5 nM). The kinase reactions were started by addition of ATP, incubated for 40 min at 37° C. and then stopped by adding 10 μL of ADP Glo reagent. After incubation at room temperature in the dark for 40 min, 20 μL of kinase detection reagent was added per well and incubated for 40 min. Luminescence was measured using an EnVision Multilabel plate reader (PerkinElmer, Buckinghamshire, UK). Positive and negative controls were perfonned in the presence and absence of CDK kinases, respectively. Half-maximal inhibition (IC50) values were calculated using a 4-parameter logistic non-linear regression model with Graphpad prism (Version 6.0). Apparent inhibition constants (Ki) values were calculated from Km (ATP) and IC50 values for the respective kinases.

In assay [2] the target is CDK7H (Homo sapiens, UniProt P50613). Nature of the assay: Kinase assay CDK7H (radiometric profiling service). Format: biochemical. As to conditions: for Ki: apparent Ki calculated from Km (ATP) and IC50, read-out: CDK inhibition Ki CDK7H; for remaining activity at 10 µM: compound at 10 μM, read-out: % remaining enzymatic activity at 10 μM CDK7H. The procedure: as §1
CDK7H, sequence (P50613 whole entry): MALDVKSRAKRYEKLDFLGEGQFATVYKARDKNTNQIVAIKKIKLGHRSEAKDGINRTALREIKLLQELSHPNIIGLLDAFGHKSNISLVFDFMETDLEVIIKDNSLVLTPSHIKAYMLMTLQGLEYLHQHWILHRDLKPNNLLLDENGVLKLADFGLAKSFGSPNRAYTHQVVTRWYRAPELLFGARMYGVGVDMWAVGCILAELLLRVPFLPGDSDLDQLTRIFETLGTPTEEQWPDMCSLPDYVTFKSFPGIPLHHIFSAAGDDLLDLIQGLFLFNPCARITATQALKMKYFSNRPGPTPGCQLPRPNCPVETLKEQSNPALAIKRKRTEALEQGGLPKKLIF
CDK7H, sequence (P51946 whole entry partner): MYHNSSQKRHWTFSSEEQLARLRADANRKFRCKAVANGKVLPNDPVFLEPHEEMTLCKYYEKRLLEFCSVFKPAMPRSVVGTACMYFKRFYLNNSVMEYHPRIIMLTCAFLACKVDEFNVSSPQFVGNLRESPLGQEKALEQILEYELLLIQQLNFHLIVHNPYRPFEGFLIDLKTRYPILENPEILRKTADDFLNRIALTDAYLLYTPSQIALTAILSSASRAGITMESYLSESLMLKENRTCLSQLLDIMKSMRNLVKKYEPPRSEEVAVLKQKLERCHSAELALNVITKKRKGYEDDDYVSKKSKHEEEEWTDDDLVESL
CDK7H, sequence (P51948 whole entry partner): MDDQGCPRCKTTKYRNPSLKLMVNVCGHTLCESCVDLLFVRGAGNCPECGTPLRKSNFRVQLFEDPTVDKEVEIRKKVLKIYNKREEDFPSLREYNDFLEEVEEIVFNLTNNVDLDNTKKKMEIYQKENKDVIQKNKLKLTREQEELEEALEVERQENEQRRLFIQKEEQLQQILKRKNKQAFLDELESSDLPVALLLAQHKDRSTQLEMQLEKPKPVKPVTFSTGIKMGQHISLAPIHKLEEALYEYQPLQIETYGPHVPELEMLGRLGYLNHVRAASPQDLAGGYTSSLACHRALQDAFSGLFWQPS
Assay [3] relates to MDA-MB-453. The experiment in a line: Cell viability assay (MTT, solid tumour cell line) MDA-MB-453. As to conditions: Homo sapiens, MDA-MB-453, 72 h; read-out: Anti-proliferative activity GI50 MDA-MB-453. Format: cell-based, human. From the text:
(§2) Compounds from Example 1 were subjected to a standard MTT (3-(4,5-dimethylthiazol-2-yl)-2,5-diphenyltetrazolium bromide) and resazurin assays on solid tumour cell lines and leukemia cell lines, respectively, as previously reported (Wang S et al., J Med Chem 47:1662-1675, 2004 and Diab S. et al. CheMedChem 9:962-972, 2014).

Assay [4] has as its target T1, CDK9T1 (Homo sapiens, UniProt P50750).
T1 construct: purchased Eurofins Pharma Discovery or Reaction Biology Corporation (service)
The experiment in a line: Kinase assay CDK9/T1 (radiometric or ADP Glo). The conditions noted are these: for Ki: apparent Ki calculated from Km (ATP) and IC50, read-out: CDK inhibition Ki CDK9T1; for remaining activity at 10 µM: compound at 10 μM, read-out: % remaining enzymatic activity at 10 μM CDK9T1. The assay is classed as biochemical. On the procedure:
as §1

For assay [5], the system named is MV4-11. Nature of the assay: Cell viability assay (resazurin, leukemia cell line) MV4-11. The assay is classed as cell-based, human. The conditions noted are these: Homo sapiens, MV4-11, 72 h; read-out: Anti-proliferative activity GI50 MV4-11.
Description: as §2
Background: Resazurin is reduced to fluorescent resorufin, in cell work by metabolically active cells.

Assay [6] addresses CDK 2A (Homo sapiens, UniProt P24941). The experiment in a line: Kinase assay CDK2A (radiometric profiling service). The assay is classed as biochemical. The conditions noted are these: for Ki: apparent Ki calculated from Km (ATP) and IC50, read-out: CDK inhibition Ki CDK 2A; for remaining activity at 10 µM: compound at 10 μM, read-out: % remaining enzymatic activity at 10 μM CDK 2A. On the procedure:
as §1

Assay [7] deals with T2, CDK4D1 (Homo sapiens, UniProt P11802).
T2 construct: purchased Eurofins Pharma Discovery or Reaction Biology Corporation (service)
T2 sequence (P11802 whole entry): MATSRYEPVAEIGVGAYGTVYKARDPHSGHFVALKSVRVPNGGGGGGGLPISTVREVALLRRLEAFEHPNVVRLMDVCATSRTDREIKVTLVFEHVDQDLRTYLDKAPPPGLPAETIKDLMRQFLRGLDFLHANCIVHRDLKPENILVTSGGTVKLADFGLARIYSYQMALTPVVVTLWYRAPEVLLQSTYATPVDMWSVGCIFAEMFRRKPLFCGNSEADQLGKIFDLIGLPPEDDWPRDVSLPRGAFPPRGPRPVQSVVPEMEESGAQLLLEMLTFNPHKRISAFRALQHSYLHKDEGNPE
T2 sequence (P24385 whole entry partner): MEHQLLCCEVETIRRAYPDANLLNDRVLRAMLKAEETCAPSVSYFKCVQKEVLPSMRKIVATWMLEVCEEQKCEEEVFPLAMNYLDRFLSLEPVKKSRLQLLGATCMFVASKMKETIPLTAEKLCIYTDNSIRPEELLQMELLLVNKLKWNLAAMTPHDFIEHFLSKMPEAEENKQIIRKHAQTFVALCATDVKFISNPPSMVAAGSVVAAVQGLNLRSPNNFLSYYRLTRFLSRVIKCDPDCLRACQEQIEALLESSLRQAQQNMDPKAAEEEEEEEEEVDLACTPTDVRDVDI
The experiment in a line: Kinase assay CDK4/D1 (radiometric or ADP Glo). The assay is classed as biochemical. The conditions noted are these: apparent Ki calculated from Km (ATP) and IC50; read-out: CDK inhibition Ki CDK4D1. The procedure:
as §1

The target of assay [8] is T3, CDK6D3 (Homo sapiens, UniProt Q00534).
T3 construct: purchased Eurofins Pharma Discovery or Reaction Biology Corporation (service)
T3 sequence (Q00534 whole entry): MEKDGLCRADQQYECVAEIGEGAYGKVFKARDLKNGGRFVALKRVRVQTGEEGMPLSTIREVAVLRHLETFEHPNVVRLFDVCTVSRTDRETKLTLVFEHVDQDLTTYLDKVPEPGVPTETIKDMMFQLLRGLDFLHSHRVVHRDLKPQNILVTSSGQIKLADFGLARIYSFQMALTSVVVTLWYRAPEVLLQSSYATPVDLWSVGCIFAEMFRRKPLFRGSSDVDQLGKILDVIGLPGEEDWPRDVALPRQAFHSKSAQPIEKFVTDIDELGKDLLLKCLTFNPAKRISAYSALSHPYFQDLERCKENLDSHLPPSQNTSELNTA
T3 sequence (P30281 whole entry partner): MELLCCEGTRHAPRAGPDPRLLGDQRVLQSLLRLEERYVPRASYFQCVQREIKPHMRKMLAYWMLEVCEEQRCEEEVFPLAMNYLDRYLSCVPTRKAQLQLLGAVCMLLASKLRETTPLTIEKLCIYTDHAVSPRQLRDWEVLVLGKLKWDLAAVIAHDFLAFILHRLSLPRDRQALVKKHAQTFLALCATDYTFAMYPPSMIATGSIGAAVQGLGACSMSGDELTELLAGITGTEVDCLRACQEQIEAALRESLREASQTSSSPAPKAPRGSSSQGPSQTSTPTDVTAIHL
Nature of the assay: Kinase assay CDK6/D3 (radiometric or ADP Glo). Format: biochemical. The conditions noted are these: for remaining activity at 10 µM: compound at 10 μM, read-out: % remaining enzymatic activity at 10 μM CDK6D3; for Ki: apparent Ki calculated from Km (ATP) and IC50, read-out: CDK inhibition Ki CDK6D3. The procedure: as §1

T1 sequence (P50750 whole entry): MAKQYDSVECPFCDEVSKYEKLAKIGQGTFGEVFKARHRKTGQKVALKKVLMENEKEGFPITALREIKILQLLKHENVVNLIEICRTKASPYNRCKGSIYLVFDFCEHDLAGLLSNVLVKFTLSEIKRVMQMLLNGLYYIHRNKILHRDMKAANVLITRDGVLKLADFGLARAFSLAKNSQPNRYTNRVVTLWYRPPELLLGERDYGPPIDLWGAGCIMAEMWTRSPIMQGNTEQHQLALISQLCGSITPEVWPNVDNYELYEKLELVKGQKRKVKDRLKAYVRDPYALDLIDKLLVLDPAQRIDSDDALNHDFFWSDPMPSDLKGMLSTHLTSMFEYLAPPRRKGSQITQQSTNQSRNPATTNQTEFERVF
T1 sequence (O60563 whole entry partner): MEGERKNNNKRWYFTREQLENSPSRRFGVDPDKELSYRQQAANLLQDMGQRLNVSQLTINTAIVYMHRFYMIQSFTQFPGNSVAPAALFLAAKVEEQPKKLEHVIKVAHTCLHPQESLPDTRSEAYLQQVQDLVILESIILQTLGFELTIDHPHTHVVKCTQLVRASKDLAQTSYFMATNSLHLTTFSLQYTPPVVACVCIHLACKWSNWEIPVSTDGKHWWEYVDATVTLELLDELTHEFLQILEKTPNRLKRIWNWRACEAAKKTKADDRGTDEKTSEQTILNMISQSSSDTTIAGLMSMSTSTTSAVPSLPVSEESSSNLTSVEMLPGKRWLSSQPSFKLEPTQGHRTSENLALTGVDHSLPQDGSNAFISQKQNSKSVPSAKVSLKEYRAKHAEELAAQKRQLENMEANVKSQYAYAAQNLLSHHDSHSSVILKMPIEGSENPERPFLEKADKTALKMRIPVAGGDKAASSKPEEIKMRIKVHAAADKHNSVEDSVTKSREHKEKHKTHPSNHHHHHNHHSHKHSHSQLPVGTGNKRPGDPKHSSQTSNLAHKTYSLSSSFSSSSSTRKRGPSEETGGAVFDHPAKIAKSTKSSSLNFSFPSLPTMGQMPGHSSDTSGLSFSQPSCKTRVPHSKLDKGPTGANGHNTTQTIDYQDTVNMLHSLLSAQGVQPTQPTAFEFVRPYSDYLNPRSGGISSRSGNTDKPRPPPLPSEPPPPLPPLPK
CDK1B, sequence (P06493 whole entry): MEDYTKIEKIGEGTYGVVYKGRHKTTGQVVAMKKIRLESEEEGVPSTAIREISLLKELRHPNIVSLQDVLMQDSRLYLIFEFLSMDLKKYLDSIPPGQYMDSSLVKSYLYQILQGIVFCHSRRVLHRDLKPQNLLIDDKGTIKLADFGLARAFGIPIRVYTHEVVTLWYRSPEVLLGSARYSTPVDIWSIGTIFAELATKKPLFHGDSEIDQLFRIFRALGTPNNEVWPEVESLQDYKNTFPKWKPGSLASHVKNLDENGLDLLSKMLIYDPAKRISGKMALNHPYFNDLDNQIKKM
CDK1B, sequence (P14635 whole entry partner): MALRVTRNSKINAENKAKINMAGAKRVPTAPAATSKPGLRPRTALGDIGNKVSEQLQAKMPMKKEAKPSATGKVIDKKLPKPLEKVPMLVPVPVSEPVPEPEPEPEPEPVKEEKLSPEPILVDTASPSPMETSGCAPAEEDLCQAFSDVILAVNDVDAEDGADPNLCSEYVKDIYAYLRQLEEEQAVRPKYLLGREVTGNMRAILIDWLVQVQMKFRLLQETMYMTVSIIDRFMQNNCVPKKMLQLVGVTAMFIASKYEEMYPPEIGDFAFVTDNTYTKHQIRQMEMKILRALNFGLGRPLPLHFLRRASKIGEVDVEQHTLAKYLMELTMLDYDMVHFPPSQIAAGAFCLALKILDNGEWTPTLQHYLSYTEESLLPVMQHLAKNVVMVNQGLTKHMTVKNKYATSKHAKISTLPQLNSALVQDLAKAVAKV

As usually defined, the GI50 is the concentration that inhibits growth by half. Take `Cc1nc(N(C)C)sc1-c1nc(Nc2ccc(N3CCOCC3)cn2)ncc1F` [Compound 50, 5-(5-fluoro-2-((5-morpholinopyridin-2-yl)amino)pyrimidin-4-yl)-N,N,4-trimethylthiazol-2-amine]: the Ki is over 5000 nM in assay [1]; over 5000 nM in assay [2]; over 5000 nM in assay [4]; 69 nM in assay [6]; 44 nM in assay [7]. Moreover, the GI50 in assay [3] worked out at 5360 ± 501 nM; in assay [5] it was 4680 ± 298 nM.

Take `CCc1nc(C)c(-c2ccnc(Nc3ccc(N4CCN(C(C)=O)CC4)cn3)n2)s1` [Compound 10, 1-(4-(6-((4-(2-ethyl-4-methylthiazol-5-yl)pyrimidin-2-yl)amino)pyridin-3-yl)piperazin-1-yl)ethan-1-one]: the Ki was over 5000 nM in assay [1]; over 5000 nM in assay [2]; over 5000 nM in assay [4]; over 5000 nM in assay [6]; 290 nM in assay [7]. The GI50 in assay [3] was over 10000 nM; in assay [5], 5370 ± 1680 nM.

With `CCN1CCN(c2ccc(Nc3nccc(-c4sc(NC5CCCC5)nc4C)n3)nc2)CC1` [Compound 66, N-cyclopentyl-5-(2-((5-(4-ethylpiperazin-1-yl)pyridin-2-yl)amino)pyrimidin-4-yl)-4-methylthiazol-2-amine], the figures for the Ki in assay [1] and in assay [2] were 3020 nM and 780 nM, respectively. Also, the GI50 in assay [3] came out at 287 ± 70 nM; in assay [5], 9 ± 1 nM.

In the case of `Cc1nc(N(C2CCCC2)C2CCCC2)sc1-c1ccnc(Nc2ccc(N3CCNCC3)cn2)n1` [Compound 88, N,N-dicyclopentyl-4-methyl-5-(2-((5-(piperazin-1-yl)pyridin-2-yl)amino)pyrimidin-4-yl)thiazol-2-amine], the Ki in assay [1] is over 15000 nM; in assay [2] it was over 5000 nM; in assay [4], over 5000 nM; in assay [6], over 5000 nM. The GI50 in assay [3] is 373 ± 117 nM; in assay [5], 714 ± 179 nM.

In the case of `CCc1nc(C)c(-c2ccnc(Nc3ccc(N4CCOCC4)cn3)n2)s1` [Compound 12, 4-(2-Ethyl-4-methylthiazol-5-yl)-N-(5-morpholinopyridin-2-yl)pyrimidin-2-amine], the Ki is over 5000 nM in assay [1]; over 5000 nM in assay [2]; over 5000 nM in assay [4]; 2340 nM in assay [6]; 180 nM in assay [7]. Moreover, the GI50 is over 10000 nM in assay [3] and 5290 ± 811 nM in assay [5].

By remaining activity is commonly meant the signal under treatment as a percentage of the control signal. Consider `Cc1c(-c2ccnc(Nc3ccc(N4CCNCC4)cn3)n2)sc(=O)n1C1CCCC1` [Compound 96, 3-cyclopentyl-4-methyl-5-(2-((5-(piperazin-1-yl)pyridin-2-yl)amino)pyrimidin-4-yl)thiazol-2(3H)-one], for which the remaining activity at 10 µM in assay [1] is 63%; in assay [2], 22%; in assay [8] it was 11%; in assay [4], 15%; in assay [6], 61%. Also, the GI50 in assay [3] is 2860 ± 988 nM; in assay [5], 792 ± 74 nM.

In the case of `CC(=O)N1CCN(c2ccc(Nc3nccc(-c4sc(NC(C)C)nc4C)n3)nc2)CC1` [Compound 57, 1-(4-(6-((4-(2-(isopropylamino)-4-methylthiazol-5-yl)pyrimidin-2-yl)amino)pyridin-3-yl)piperazin-1-yl)ethan-1-one], the Ki in assay [1] was 2700 nM; in assay [8] it was 105 nM; in assay [4] it was 3720 nM; in assay [6] it was 200 nM; in assay [7], 21 nM. Further, the values for the GI50 in assay [3] and in assay [5] were 344 ± 126 nM and 2070 ± 321 nM, respectively.

As to `Cc1[nH]c(=O)sc1-c1ccnc(Nc2ccc(N3CCNCC3)cn2)n1` [Compound 97, 4-methyl-5-(2-((5-(piperazin-1-yl)pyridin-2-yl)amino)pyrimidin-4-yl)thiazol-2(3H)-one], the remaining activity at 10 µM in assay [1] amounted to 58%; in assay [2], 24%; in assay [8] it was 12%; in assay [4], 3%; in assay [6], 54%. Moreover, the figures for the GI50 in assay [3] and in assay [5] were over 10000 nM and 1510 ± 802 nM, respectively.

Consider `Cc1nc(NC2CCCC2)sc1-c1nc(Nc2ccc(N3CCOCC3)cn2)ncc1F` [Compound 72], for which the Ki in assay [2] and in assay [4] was over 5000 nM throughout. Also, the 50% growth inhibitory concentration (GI50) in assay [3] stood at 1440 ± 304 nM.

On to `CCc1nc(C)c(-c2nc(Nc3ccc(N4CCN(C(C)=O)CC4)cn3)ncc2Cl)s1` [Compound 11, 1-(4-(6-((5-chloro-4-(2-ethyl-4-methylthiazol-5-yl)pyrimidin-2-yl)amino)pyridin-3-yl)piperazin-1-yl)ethan-1-one], for which the Ki in assay [1] is over 5000 nM; in assay [2], over 5000 nM; in assay [4], over 5000 nM; in assay [6], over 5000 nM; in assay [7], 250 nM. Also, the GI50 in assay [3] and in assay [5] was over 10000 nM throughout.

Consider `CC(=O)N1CCN(c2ccc(Nc3nccc(-c4sc(=O)[nH]c4C)n3)nc2)CC1` [Compound 95, 5-(2-((5-(4-acetylpiperazin-1-yl)pyridin-2-yl)amino)pyrimidin-4-yl)-4-methylthiazol-2(3H)-one], for which the remaining activity at 10 µM in assay [1] turned out to be 55%; in assay [2] it was 68%; in assay [8] it was 25%; in assay [4] it was 17%; in assay [6], 40%. Besides, the GI50 in assay [3] is over 10000 nM; in assay [5] it was 2240 ± 43 nM.

Regarding `CC(=O)N1CCN(c2ccc(Nc3nccc(-c4sc(NC5CCCC5)nc4C(F)(F)F)n3)nc2)CC1` [Compound 70, 1-(4-(6-((4-(2-(cyclopentylamino)-4-(trifluoromethyl)thiazol-5-yl)pyrimidin-2-yl)amino)pyridin-3-yl)piperazin-1-yl)ethan-1-one], the Ki in assay [1] is 297 nM; in assay [8] it was 6 nM; in assay [4], over 5000 nM; in assay [6], 14 nM; in assay [7], 4 nM. Moreover, the figures for the GI50 in assay [3] and in assay [5] were 77 ± 1 nM and 12 ± 1 nM, respectively.

Regarding `Cc1nc(NC2CCCC2)sc1-c1ccnc(Nc2ccc(N3CCN(C)CC3)cn2)n1` [Compound 63, N-cyclopentyl-4-methyl-5-(2-((5-(4-methylpiperazin-1-yl)pyridin-2-yl)amino)pyrimidin-4-yl)thiazol-2-amine], the Ki is 2680 nM in assay [1]; 9 nM in assay [8]; 180 nM in assay [4]; 206 nM in assay [6]; 2 nM in assay [7]. The GI50 in assay [3] was 130 ± 11 nM; in assay [5], 9 nM.

Consider `Cc1nc(NC2CCCC2)sc1-c1ccnc(Nc2ccc(N3CCCNCC3)cn2)n1` [Compound 76, 5-(2-((5-(1,4-diazepan-1-yl)pyridin-2-yl)amino)pyrimidin-4-yl)-N-cyclopentyl-4-methylthiazol-2-amine], for which the Ki in assay [1] is 4070 nM; in assay [8], 8 nM; in assay [4], 508 nM; in assay [6] it was 278 nM; in assay [7], 1 nM. Further, the GI50 amounted to 102 ± 117 nM in assay [3] and 29 ± 2 nM in assay [5].

Consider `Cc1nc(N(C)C2CCCC2)sc1-c1ccnc(Nc2ccc(N3CCNCC3)cn2)n1` [Compound 85, N-cyclopentyl-N,4-dimethyl-5-(2-((5-(piperazin-1-yl)pyridin-2-yl)amino)pyrimidin-4-yl)thiazol-2-amine], for which the Ki in assay [1] was 1390 nM; in assay [8], 10 nM; in assay [4] it was 1800 nM; in assay [6], 174 nM; in assay [7] it was 2 nM. In addition, the figures for the GI50 in assay [3] and in assay [5] were 402 ± 6 nM and 285 ± 41 nM, respectively.
